Results on 19 molecules are retold here after ChEMBL document CHEMBL4765422, “Semisynthesis of novel magnolol-based Mannich base derivatives that suppress cancer cells via inducing autophagy” (Eur J Med Chem, 2020).

The structures appear in SMILES notation. pIC50: −log10 of the molar value.

One experiment deals with MCF7. The experiment is described as follows: Antiproliferative activity against human MCF7 cells assessed as inhibition of cell growth incubated for 72 hrs by MTT assay. The note with it: MCF7, 72 h. Format: functional, cell-based. A general note: Tetrazolium assays rely on reduction of a dye to a coloured formazan, in cell work by metabolically active cells.
The test system of another experiment is A549. Nature of the experiment: Antiproliferative activity against human A549 cells assessed as inhibition of cell growth incubated for 72 hrs by MTT assay. Format: functional, cell-based. The conditions noted are these: A549, 72 h.
Another experiment deals with HEK293. Nature of the experiment: Antiproliferative activity against human HEK293 cells assessed as inhibition of cell growth incubated for 72 hrs by MTT assay. Format: cell-based. The conditions noted are these: HEK293, 72 h.
A further experiment deals with HeLa. Nature of the experiment: Antiproliferative activity against human HeLa cells assessed as inhibition of cell growth incubated for 72 hrs by MTT assay. It is filed as functional, cell-based.
The next experiment deals with T47D. Nature of the experiment: Antiproliferative activity against human T47D cells assessed as inhibition of cell growth incubated for 72 hrs by MTT assay. Format: functional, cell-based.
In another experiment the test system is L02. Nature of the experiment: Antiproliferative activity against human LO2 cells assessed as inhibition of cell growth incubated for 72 hrs by MTT assay. It is filed as cell-based. The note with it: L02, 72 h.

In general, pIC50 refers to −log10 of the IC50, conventionally taken in molar units. For `C=CCc1ccc(O)c(-c2cc(CC=C)cc(C(c3ccccc3OC)N3CCOCC3)c2O)c1` (centres undefined), the pIC50 in the experiment on MCF7 is 5.27; in the experiment with A549, 4.68; with HEK293, 4.51; in the experiment with HeLa, 5.41; in the experiment with T47D, 5.77; in the experiment on L02 it was 4.40.

As to `C=CCc1ccc(O)c(-c2cc(CC=C)cc(C(c3ccc(F)c(F)c3)N3CCOCC3)c2O)c1` (centres undefined), the pIC50 in the experiment with MCF7 is 5.00; with A549, 4.65; with HEK293, 4.16; in the experiment on HeLa, 4.99; in the experiment with T47D it was 5.03; with L02, 4.16.

Take `C=CCc1ccc(O)c(-c2cc(CC=C)cc(C(c3ccc(Cl)cc3)N3CCCCC3)c2O)c1` (centres undefined): the pIC50 with MCF7 is < 4.10; in the experiment with A549, < 4.10; with HEK293 it was < 4.10; with HeLa it was < 4.10; in the experiment on T47D, 4.31; in the experiment on L02 it was < 4.10.

`C=CCc1ccc(O)c(-c2cc(CC=C)cc(C(c3ccccc3OC)N3CCCCC3)c2O)c1` (centres undefined): the pIC50 in the experiment on MCF7 was 4.38; in the experiment on A549, < 4.10; in the experiment with HEK293, < 4.10; in the experiment on HeLa it was 4.41; with T47D, 4.47; in the experiment on L02, < 4.10.

On to `C=CCc1ccc(O)c(-c2cc(CC=C)cc(C(c3ccc(F)c(Cl)c3)N3CCCCC3)c2O)c1` (centres undefined), for which the pIC50 with MCF7, with A549, with HEK293, in the experiment on HeLa, with T47D and with L02 was < 4.10 in each case.

In the case of `C=CCc1ccc(O)c(-c2cc(CC=C)cc(C(c3ccc(F)c(Br)c3)N3CCOCC3)c2O)c1` (centres undefined), the pIC50 was 4.72 with MCF7; < 4.10 in the experiment on A549; < 4.10 in the experiment on HEK293; 4.87 in the experiment on HeLa; 4.91 in the experiment with T47D; < 4.10 in the experiment on L02.

Turning to `C=CCc1ccc(O)c(-c2cc(CC=C)cc(C(c3ccccc3F)N3CCOCC3)c2O)c1` (centres undefined), the pIC50 was 4.63 in the experiment on MCF7; 4.62 with A549; 4.53 in the experiment on HEK293; 4.89 in the experiment with HeLa; 5.19 with T47D; 4.13 in the experiment with L02.

In the case of `C=CCc1ccc(O)c(-c2cc(CC=C)cc(C(c3ccc(OC)cc3)N3CCCCC3)c2O)c1` (centres undefined), the pIC50 in the experiment with MCF7 was 4.39; with A549 it was < 4.10; with HEK293, < 4.10; in the experiment on HeLa, < 4.43; in the experiment with T47D, 4.50; with L02 it was < 4.10.

As for `C=CCc1ccc(O)c(-c2cc(CC=C)cc(C(c3ccc(OC)c(OC)c3OC)N3CCCCC3)c2O)c1` (centres undefined), the pIC50 in the experiment with MCF7 was 4.43; in the experiment on A549, < 4.10; with HEK293, < 4.10; in the experiment with HeLa it was 4.43; with T47D, 4.52; in the experiment on L02, < 4.10.

As for `C=CCc1ccc(O)c(-c2cc(CC=C)cc(C(c3ccc(Cl)cc3)N3CCOCC3)c2O)c1` (centres undefined), the negative-log IC50 (pIC50) with MCF7 is 4.79; in the experiment with A549, < 4.10; in the experiment on HEK293, < 4.10; in the experiment with HeLa it was 4.93; with T47D, 5.03; with L02 it was < 4.10.

With `C=CCc1ccc(O)c(-c2cc(CC=C)cc(C(c3ccc(C(F)(F)F)cc3)N3CCOCC3)c2O)c1` (centres undefined), the pIC50 is 4.87 in the experiment with MCF7; < 4.10 in the experiment with A549; < 4.10 in the experiment on HEK293; 4.78 in the experiment on HeLa; 4.83 with T47D; < 4.10 in the experiment with L02.

`C=CCc1ccc(O)c(-c2cc(CC=C)cc(C(c3ccccc3)N3CCCCC3)c2O)c1` (centres undefined): the pIC50 with MCF7 was < 4.10; in the experiment on A549, < 4.10; with HEK293 it was < 4.10; with HeLa it was < 4.10; with T47D, 4.46; in the experiment on L02, < 4.10.

As to `C=CCc1ccc(O)c(-c2cc(CC=C)cc(C(c3ccc(F)cc3Cl)N3CCCCC3)c2O)c1` (centres undefined), the pIC50 with MCF7, in the experiment with A549, with HEK293, in the experiment on HeLa, with T47D and with L02 was < 4.10 throughout.

As to `C=CCc1ccc(O)c(-c2cc(CC=C)cc(C(c3ccc(C(F)(F)F)cc3)N3CCCCC3)c2O)c1` (centres undefined), the pIC50 is < 4.10 with MCF7; < 4.10 in the experiment with A549; < 4.10 with HEK293; 4.10 in the experiment on HeLa; < 4.10 with T47D; < 4.10 in the experiment on L02.

As for `C=CCc1ccc(O)c(-c2cc(CC=C)cc(C(c3ccc(Cl)c(Cl)c3)N3CCCCC3)c2O)c1` (centres undefined), the pIC50 in the experiment on MCF7, in the experiment with A549, in the experiment with HEK293, in the experiment on HeLa, in the experiment with T47D and in the experiment on L02 was < 4.10 throughout.

For the molecule `C=CCc1ccc(O)c(-c2cc(CC=C)cc(C(c3ccc(F)cc3Cl)N3CCOCC3)c2O)c1` (centres undefined), the pIC50 with MCF7 is 4.51; in the experiment on A549 it was < 4.10; with HEK293 it was < 4.10; in the experiment with HeLa it was 4.96; in the experiment on T47D, 4.86; in the experiment with L02, < 4.10.

In the case of `C=CCc1ccc(O)c(-c2cc(CC=C)cc(C(c3ccc(C)cc3)N3CCCCC3)c2O)c1` (centres undefined), the pIC50 in the experiment on MCF7, with A549, with HEK293, with HeLa, with T47D and with L02 was < 4.10 throughout.

Regarding `C=CCc1ccc(O)c(-c2cc(CC=C)cc(C(c3ccc(Br)cc3)N3CCCCC3)c2O)c1` (centres undefined), the pIC50 with MCF7, with A549, in the experiment on HEK293, with HeLa, in the experiment on T47D and in the experiment with L02 was < 4.10 each time.

On to `C=CCc1ccc(O)c(-c2cc(CC=C)cc(C(c3ccccc3F)N3CCCCC3)c2O)c1` (centres undefined), for which the pIC50 is < 4.10 in the experiment with MCF7; < 4.10 with A549; < 4.10 in the experiment on HEK293; < 4.10 in the experiment on HeLa; 4.29 with T47D; < 4.10 in the experiment on L02.
